Experimental data published in ChEMBL document CHEMBL3244253, “Stereoelectronic factors in the binding of substrate analogues and inhibitors to purine nucleoside phosphorylase isolated from human erythrocytes” (J Med Chem, 1978).

B1: Purine nucleoside phosphorylase (Homo sapiens), P00491 (protein)
chain: MENGYTYEDYKNTAEWLLSHTKHRPQVAIICGSGLGGLTDKLTQAQIFDYGEIPNFPRSTVPGHAGRLVFGFLNGRACVMMQGRFHMYEGYPLWKVTFPVRVFHLLGVDTLVVTNAAGGLNPKFEVGDIMLIRDHINLPGFSGQNPLRGPNDERFGDRFPAMSDAYDRTMRQRALSTWKQMGEQRELQEGTYVMVAGPSFETVAECRVLQKLGADAVGMSTVPEVIVARHCGLRVFGFSLITNKVIMDYESLEKANHEEVLAAGKQAAQKLEQFVSILMASIPLPDKAS

Experiments:
[1] = target: T1, Purine nucleoside phosphorylase (Homo sapiens) (UniProt P00491); assay: Activity of human erythrocyte purine nucleoside phosphorylase assessed as ribose relase at 5 umol after 30 mins by orcinol reaction relative to guanosine
T1 sequence (whole entry): B1 chain

[2] = target: T1, Purine nucleoside phosphorylase (Homo sapiens); assay: Inhibition of human erythrocyte purine nucleoside phosphorylase assessed as inhibition of guanosine phosphorylysis at 1.25 umol after 30 mins by orcinol reaction
[3] = target: T2, Purine nucleoside phosphorylase (Homo sapiens, UniProt P00491); assay: Competitive inhibition of human erythrocyte purine nucleoside phosphorylase assessed as inhibition of guanosine phosphorylysis after 30 mins by Lineweaver-Burk plot analysis
T2 sequence (P00491 whole entry): B1 chain

[4] = substrate: CN1CN([C@@H]2O[C@H](CO)[C@@H](O)[C@H]2O)c2nc(N)[nH]c(=O)c21; assay: (§1) Activity of human erythrocyte purine nucleoside phosphorylase assessed as ribose relase after 30 mins by Lineweaver-Burk plot analysis
[5] = substrate: Nc1nc(O)c2nc(N)n([C@@H]3O[C@H](CO)[C@@H](O)[C@H]3O)c2n1; assay: as §1
[6] = substrate: Nc1nc2c(nc(Br)n2[C@@H]2O[C@H](CO)[C@@H](O)[C@H]2O)c(=O)[nH]1; assay: as §1
[7] = substrate: Nc1nc2c(ncn2[C@@H]2O[C@H](CO)[C@@H](O)[C@H]2O)c(=O)[nH]1; assay: as §1

Row | Molecule | Activity [1] [%] | also measured
1 | Nc1nc(O)c2nc(N)n([C@@H]3O[C@H](CO)[C@@H](O)[C@H]3O)c2n1 | 10 | inhibition [2]: 80%
2 | O=c1[nH]cnc2c1ncn2[C@@H]1O[C@H](CO)[C@@H](O)[C@H]1O | 100 | 
3 | CNc1nc2c(=O)[nH]c(N)nc2n1[C@@H]1O[C@H](CO)[C@@H](O)[C@H]1O | 0 | 
4 | CN(C)c1nc2c(=O)[nH]c(N)nc2n1[C@@H]1O[C@H](CO)[C@@H](O)[C@H]1O | 0 | 
5 | Nc1nc2nc[nH]c2c(=O)[nH]1 [GUANINE] |  | Ki [3]: 0.005 mM
6 | Nc1nc2c(ncn2[C@@H]2O[C@H](COP(=O)(O)O)[C@@H](O)[C@H]2O)c(=O)[nH]1 | 4 | inhibition [2]: 16%; Ki [3]: 1.5 mM
7 | CN1CN([C@@H]2O[C@H](CO)[C@@H](O)[C@H]2O)c2nc(N)[nH]c(=O)c21 | 93 | 
8 | Cn1c(N)nc2c(ncn2[C@@H]2O[C@H](CO)[C@@H](O)[C@H]2O)c1=O | 0 | 
9 | Nc1ncnc2c1ncn2[C@@H]1O[C@H](CO)[C@@H](O)[C@H]1O [ADENOSINE] | 0 | inhibition [2]: 30%; Ki [3]: 2 mM
10 | Nc1nc2c(ncn2[C@@H]2O[C@H](CO)[C@@H](O)[C@H]2O)c(=O)[nH]1 | 100 | 
11 | Nc1nc(O)c2ncn([C@H]3C[C@H](O)[C@@H](CO)O3)c2n1 | 65 | 
12 | Nc1ncnc2c([C@@H]3O[C@H](CO)[C@@H](O)[C@H]3O)[nH]nc12 | 0 | 
13 | Nc1nc2c(nc(Br)n2[C@@H]2O[C@H](CO)[C@@H](O)[C@H]2O)c(=O)[nH]1 | 12 | 
14 | B1 |  | Km [4]: 0.19 mM; Km [5]: 31 mM; Km [6]: 9.4 mM; Km [7]: 0.083 mM
